From ChEMBL document CHEMBL1201861, “Genomics of Drug Sensitity in Cancer screening data, Wellcome Trust Sanger Institute”

Assays:
EVSA-T = experiment: cells; assay type: functional, cell-based, Homo sapiens; settings: Homo sapiens, EVSA-T;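 note: growth inhibition of EVSA-T cells, read out with a cell viability assay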
Description: SANGER: Inhibition of human EVSA-T cell growth in a cell viability assay.

MDA-MB-134-VI = experiment: cells; assay type: functional, cell-based, Homo sapiens; settings: Homo sapiens, MDA-MB-134-VI
Description: SANGER: Inhibition of human MDA-MB-134-VI cell growth in a cell viability assay.

GDM-1 = experiment: cells; assay type: functional, cell-based, Homo sapiens; settings: Homo sapiens, GDM-1;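 note: cell viability readout used to measure growth inhibition of human GDM-1 cells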
Description: SANGER: Inhibition of human GDM-1 cell growth in a cell viability assay.

LB647-SCLC = experiment: cells; assay type: functional, cell-based, Homo sapiens; settings: Homo sapiens, LB647-SCLC;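 note: cell growth inhibition, read out by a viability assay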
Description: SANGER: Inhibition of human LB647-SCLC cell growth in a cell viability assay.

NCI-H2141 = experiment: cells; assay type: functional, cell-based, Homo sapiens; settings: Homo sapiens, NCI-H2141;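 note: growth inhibition of human NCI-H2141 cells, read out with a cell viability assay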
Description: SANGER: Inhibition of human NCI-H2141 cell growth in a cell viability assay.

MHH-CALL-2 = experiment: cells; assay type: functional, cell-based, Homo sapiens; settings: Homo sapiens, MHH-CALL-2;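 note: growth inhibition of the cell line, read out in a cell viability assay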
Description: SANGER: Inhibition of human MHH-CALL-2 cell growth in a cell viability assay.

NCCIT = experiment: SANGER: Inhibition of human NCCIT cell growth in a cell viability assay.; assay type: functional, cell-based; settings: Homo sapiens, NCCIT
BL-41 = experiment: cells; assay type: functional, cell-based, Homo sapiens; settings: Homo sapiens, BL-41;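 note: growth inhibition of human BL-41 cells, read out with a cell viability assay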
Description: SANGER: Inhibition of human BL-41 cell growth in a cell viability assay.

DMS-153 = experiment: cells; assay type: functional, cell-based, Homo sapiens; settings: Homo sapiens, DMS-153
Description: SANGER: Inhibition of human DMS-153 cell growth in a cell viability assay.

YT = experiment: cells; assay type: functional, cell-based, Homo sapiens; settings: Homo sapiens, YT
Description: SANGER: Inhibition of human YT cell growth in a cell viability assay.

NCI-H187 = experiment: cells; assay type: functional, cell-based, Homo sapiens; settings: Homo sapiens, NCI-H187;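 note: growth inhibition of NCI-H187 cells, read out as cell viability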
Description: SANGER: Inhibition of human NCI-H187 cell growth in a cell viability assay.

NCI-H1417 = experiment: cells; assay type: functional, cell-based, Homo sapiens; settings: Homo sapiens, NCI-H1417;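 note: human NCI-H1417 cells, growth inhibition determined with a cell viability readout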
Description: SANGER: Inhibition of human NCI-H1417 cell growth in a cell viability assay.

CHP-126 = experiment: cells; assay type: functional, cell-based, Homo sapiens; settings: Homo sapiens, CHP-126
Description: SANGER: Inhibition of human CHP-126 cell growth in a cell viability assay.

GP5d = experiment: cells; assay type: functional, cell-based, Homo sapiens; settings: Homo sapiens, GP5d;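 note: growth inhibition of human GP5d cells, read out with a cell viability assay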
Description: SANGER: Inhibition of human GP5d cell growth in a cell viability assay.

SW756 = experiment: cells; assay type: functional, cell-based, Homo sapiens; settings: Homo sapiens, SW756;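 note: growth inhibition of human SW756 cells, read out with a cell viability assay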
Description: SANGER: Inhibition of human SW756 cell growth in a cell viability assay.

C-33-A = experiment: cells; assay type: functional, cell-based, Homo sapiens; settings: Homo sapiens, C-33-A;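 note: cell viability assay measuring growth inhibition of C-33-A cells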
Description: SANGER: Inhibition of human C-33-A cell growth in a cell viability assay.

HCC1937 = experiment: cells; assay type: functional, cell-based, Homo sapiens; settings: Homo sapiens, HCC1937;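 note: growth inhibition measured with a cell viability read-out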
Description: SANGER: Inhibition of human HCC1937 cell growth in a cell viability assay.

CAKI-1 = experiment: cells; assay type: functional, cell-based, Homo sapiens; settings: Homo sapiens, CAKI-1;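 note: growth inhibition of CAKI-1 cells, measured by a cell viability assay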
Description: SANGER: Inhibition of human CAKI-1 cell growth in a cell viability assay.

A 172 = experiment: cells; assay type: functional, cell-based, Homo sapiens; settings: Homo sapiens, A 172;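 note: growth inhibition of A172 cells, measured with a cell viability readout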
Description: SANGER: Inhibition of human A172 cell growth in a cell viability assay.

HT-1376 = experiment: cells; assay type: functional, cell-based, Homo sapiens; settings: Homo sapiens, HT-1376
Description: SANGER: Inhibition of human HT-1376 cell growth in a cell viability assay.

HT-1080 = experiment: cells; assay type: functional, cell-based, Homo sapiens; settings: Homo sapiens, HT-1080
Description: SANGER: Inhibition of human HT-1080 cell growth in a cell viability assay.

NCI-H2228 = experiment: cells; assay type: functional, cell-based, Homo sapiens; settings: Homo sapiens, NCI-H2228;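 note: growth inhibition of human NCI-H2228 cells, read out by a cell viability assay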
Description: SANGER: Inhibition of human NCI-H2228 cell growth in a cell viability assay.

LU-99A = experiment: cells; assay type: functional, cell-based, Homo sapiens; settings: Homo sapiens, LU-99A;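 note: growth inhibition of LU-99A cells, read out with a cell viability assay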
Description: SANGER: Inhibition of human LU-99A cell growth in a cell viability assay.

SW1990 = experiment: cells; assay type: functional, cell-based, Homo sapiens; settings: Homo sapiens, SW1990
Description: SANGER: Inhibition of human SW1990 cell growth in a cell viability assay.

T98G = experiment: cells; assay type: functional, cell-based, Homo sapiens; settings: Homo sapiens, T98G;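 note: growth inhibition of T98G cells, read out by a cell viability assay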
Description: SANGER: Inhibition of human T98G cell growth in a cell viability assay.

NCI-H1437 = experiment: cells; assay type: functional, cell-based, Homo sapiens; settings: Homo sapiens, NCI-H1437;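 note: growth inhibition of human NCI-H1437 cells, read out by a cell viability assay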
Description: SANGER: Inhibition of human NCI-H1437 cell growth in a cell viability assay.

HT1197 = experiment: cells; assay type: functional, cell-based, Homo sapiens, HT-1197; settings: Homo sapiens, HT1197
Description: SANGER: Inhibition of human HT-1197 cell growth in a cell viability assay.

IGR-1 = experiment: cells; assay type: functional, cell-based, Homo sapiens; settings: Homo sapiens, IGR-1;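 note: growth inhibition of human IGR-1 cells, read out with a cell viability assay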
Description: SANGER: Inhibition of human IGR-1 cell growth in a cell viability assay.

BXPC-3 = experiment: cells; assay type: functional, cell-based, Homo sapiens; settings: Homo sapiens, BXPC-3;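 note: growth inhibition of human BxPC-3 cells, read out by a cell viability assay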
Description: SANGER: Inhibition of human BxPC-3 cell growth in a cell viability assay.

KYSE-70 cell line = experiment: cells; assay type: functional, cell-based, Homo sapiens; settings: Homo sapiens, KYSE-70;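 note: cell viability assay read-out, with IC50 expressing suppression of KYSE-70 cell growth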
Description: SANGER: Inhibition of human KYSE-70 cell growth in a cell viability assay.

Ca9-22 = experiment: cells; assay type: functional, cell-based, Homo sapiens; settings: Homo sapiens, Ca9-22;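 note: growth inhibition of Ca9-22 cells, read out with a cell viability assay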
Description: SANGER: Inhibition of human Ca9-22 cell growth in a cell viability assay.

SK-MEL-28 = experiment: cells; assay type: functional, cell-based, Homo sapiens; settings: Homo sapiens, SK-MEL-28;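 note: growth inhibition of human SK-MEL-28 cells, read out with a cell viability assay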
Description: SANGER: Inhibition of human SK-MEL-28 cell growth in a cell viability assay.

SK-OV-3 = experiment: cells; assay type: functional, cell-based, Homo sapiens; settings: Homo sapiens, SK-OV-3;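 note: growth inhibition of SK-OV-3 human cells, read out with a cell viability assay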
Description: SANGER: Inhibition of human SK-OV-3 cell growth in a cell viability assay.

SN12C = experiment: cells; assay type: functional, cell-based, Homo sapiens; settings: Homo sapiens, SN12C;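 note: growth inhibition of human SN12C cells, measured by a cell viability assay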
Description: SANGER: Inhibition of human SN12C cell growth in a cell viability assay.

639-V = experiment: cells; assay type: functional, cell-based, Homo sapiens; settings: Homo sapiens, 639-V;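 note: growth inhibition of 639-V cells, read out with a cell viability assay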
Description: SANGER: Inhibition of human 639-V cell growth in a cell viability assay.

G-402 = experiment: cells; assay type: functional, cell-based, Homo sapiens; settings: Homo sapiens, G-402
Description: SANGER: Inhibition of human G-402 cell growth in a cell viability assay.

LN-405 = experiment: cells; assay type: functional, cell-based, Homo sapiens; settings: Homo sapiens, LN-405
Description: SANGER: Inhibition of human LN-405 cell growth in a cell viability assay.

Huh-7 = experiment: cells; assay type: functional, cell-based, Homo sapiens; settings: Homo sapiens, Huh-7;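 note: HuH-7 cell growth inhibition, read out with a cell viability assay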
Description: SANGER: Inhibition of human HuH-7 cell growth in a cell viability assay.

NCI-H1573 = experiment: cells; assay type: functional, cell-based, Homo sapiens; settings: Homo sapiens, NCI-H1573;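 note: growth inhibition of NCI-H1573 cells, read out with a cell viability assay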
Description: SANGER: Inhibition of human NCI-H1573 cell growth in a cell viability assay.

MHH-ES-1 = experiment: cells; assay type: functional, cell-based, Homo sapiens; settings: Homo sapiens, MHH-ES-1
Description: SANGER: Inhibition of human MHH-ES-1 cell growth in a cell viability assay.

5637 = experiment: cells; assay type: functional, cell-based, Homo sapiens; settings: Homo sapiens
Description: SANGER: Inhibition of human 5637 cell growth in a cell viability assay.

OVCAR-3 = experiment: cells; assay type: functional, cell-based, Homo sapiens; settings: Homo sapiens, OVCAR-3;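 note: growth inhibition of human OVCAR-3 cells, determined by a cell viability assay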
Description: SANGER: Inhibition of human OVCAR-3 cell growth in a cell viability assay.

UMUC3 = experiment: cells; assay type: functional, cell-based, Homo sapiens; settings: Homo sapiens, UMUC3;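 note: growth inhibition of human UM-UC-3 cells, read out with a cell viability assay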
Description: SANGER: Inhibition of human UM-UC-3 cell growth in a cell viability assay.

SK-MEL3 = experiment: cells; assay type: functional, cell-based, Homo sapiens, SK-MEL-3; settings: Homo sapiens, SK-MEL3;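 note: growth inhibition of human SK-MEL-3 cells, read out with a cell viability assay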
Description: SANGER: Inhibition of human SK-MEL-3 cell growth in a cell viability assay.

CCN(CC)CCNC(=O)c1c(C)[nH]c(/C=C2\C(=O)Nc3ccc(F)cc32)c1C [SUNITINIB]
IC50 (EVSA-T): > 8000 nM
IC50 (MDA-MB-134-VI): > 8000 nM
IC50 (GDM-1): > 8000 nM
IC50 (LB647-SCLC): > 8000 nM
IC50 (NCI-H2141): > 8000 nM
IC50 (MHH-CALL-2): 5770 nM
IC50 (NCCIT): > 8000 nM
IC50 (BL-41): 2910 nM
IC50 (DMS-153): > 8000 nM
IC50 (YT): > 8000 nM
IC50 (NCI-H187): > 8000 nM
IC50 (NCI-H1417): > 8000 nM
IC50 (CHP-126): > 8000 nM

Nc1ccn([C@@H]2O[C@H](CO)[C@@H](O)C2(F)F)c(=O)n1 [GEMCITABINE]
IC50 (GP5d): 28.7 nM
IC50 (SW756): 45.1 nM
IC50 (EVSA-T): > 1020 nM
IC50 (MDA-MB-134-VI): > 1020 nM
IC50 (GDM-1): 62.5 nM
IC50 (C-33-A): < 4 nM
IC50 (HCC1937): > 1020 nM
IC50 (CAKI-1): > 1020 nM
IC50 (A 172): 24.7 nM
IC50 (LB647-SCLC): 1.18 nM
IC50 (NCI-H2141): 644 nM
IC50 (HT-1376): 369 nM
IC50 (HT-1080): 5.83 nM
IC50 (MHH-CALL-2): 1020 nM
IC50 (NCI-H2228): < 4 nM
IC50 (LU-99A): > 1020 nM
IC50 (SW1990): 113 nM
IC50 (NCCIT): 176 nM
IC50 (T98G): 539 nM
IC50 (NCI-H1437): 9.42 nM
IC50 (HT1197): > 1020 nM
IC50 (IGR-1): 14.4 nM
IC50 (BL-41): 14.4 nM
IC50 (BXPC-3): 36.9 nM
IC50 (DMS-153): > 1020 nM
IC50 (KYSE-70 cell line): 300 nM
IC50 (Ca9-22): 1.54 nM
IC50 (YT): > 1020 nM
IC50 (SK-MEL-28): > 1020 nM
IC50 (SK-OV-3): 38.7 nM
IC50 (NCI-H187): > 1020 nM
IC50 (SN12C): 497 nM
IC50 (639-V): 193 nM
IC50 (NCI-H1417): > 1020 nM
IC50 (G-402): < 4 nM
IC50 (LN-405): > 1020 nM
IC50 (Huh-7): 569 nM
IC50 (NCI-H1573): > 1020 nM
IC50 (MHH-ES-1): < 4 nM
IC50 5637: > 1020 nM
IC50 (CHP-126): 24.1 nM
IC50 (OVCAR-3): > 1020 nM
IC50 (UMUC3): 16.2 nM
IC50 (SK-MEL3): 105 nM

OCCCNc1cc(-c2ccnc(Nc3cccc(Cl)c3)n2)ccn1
IC50 (EVSA-T): 135 nM
IC50 (MDA-MB-134-VI): > 256 nM
IC50 (GDM-1): > 256 nM
IC50 (LB647-SCLC): > 256 nM
IC50 (NCI-H2141): 102 nM
IC50 (MHH-CALL-2): 85.5 nM
IC50 (NCCIT): 48.5 nM
IC50 (BL-41): 33.6 nM
IC50 (DMS-153): > 256 nM
IC50 (YT): > 256 nM
IC50 (NCI-H187): > 256 nM
IC50 (NCI-H1417): > 256 nM
IC50 (CHP-126): 135 nM

CC[C@H](CO)Nc1nc(NCc2ccccc2)c2ncn(C(C)C)c2n1 [SELICICLIB]
IC50 (EVSA-T): > 16000 nM
IC50 (MDA-MB-134-VI): > 16000 nM
IC50 (GDM-1): > 16000 nM
IC50 (LB647-SCLC): > 16000 nM
IC50 (NCI-H2141): > 16000 nM
IC50 (MHH-CALL-2): > 16000 nM
IC50 (NCCIT): 7550 nM
IC50 (BL-41): > 16000 nM
IC50 (DMS-153): > 16000 nM
IC50 (YT): > 16000 nM
IC50 (NCI-H187): > 16000 nM
IC50 (NCI-H1417): > 16000 nM
IC50 (CHP-126): > 16000 nM

C=C(c1ccc(C(=O)O)cc1)c1cc2c(cc1C)C(C)(C)CCC2(C)C [BEXAROTENE]
IC50 (GP5d): > 8000 nM
IC50 (SW756): > 8000 nM
IC50 (EVSA-T): > 8000 nM
IC50 (MDA-MB-134-VI): > 8000 nM
IC50 (GDM-1): > 8000 nM
IC50 (C-33-A): > 8000 nM
IC50 (HCC1937): > 8000 nM
IC50 (CAKI-1): > 8000 nM
IC50 (A 172): > 8000 nM
IC50 (LB647-SCLC): > 8000 nM
IC50 (NCI-H2141): > 8000 nM
IC50 (HT-1376): > 8000 nM
IC50 (HT-1080): > 8000 nM
IC50 (MHH-CALL-2): > 8000 nM
IC50 (NCI-H2228): > 8000 nM
IC50 (LU-99A): > 8000 nM
IC50 (SW1990): > 8000 nM
IC50 (NCCIT): > 8000 nM
IC50 (T98G): > 8000 nM
IC50 (NCI-H1437): > 8000 nM
IC50 (HT1197): > 8000 nM
IC50 (IGR-1): > 8000 nM
IC50 (BL-41): > 8000 nM
IC50 (BXPC-3): > 8000 nM
IC50 (DMS-153): > 8000 nM
IC50 (KYSE-70 cell line): > 8000 nM
IC50 (Ca9-22): > 8000 nM
IC50 (YT): > 8000 nM
IC50 (SK-MEL-28): > 8000 nM
IC50 (SK-OV-3): > 8000 nM
IC50 (NCI-H187): > 8000 nM
IC50 (SN12C): > 8000 nM
IC50 (639-V): > 8000 nM
IC50 (NCI-H1417): > 8000 nM
IC50 (G-402): > 8000 nM
IC50 (LN-405): > 8000 nM
IC50 (Huh-7): > 8000 nM
IC50 (NCI-H1573): > 8000 nM
IC50 (MHH-ES-1): > 8000 nM
IC50 5637: > 8000 nM
IC50 (CHP-126): > 8000 nM
IC50 (OVCAR-3): > 8000 nM
IC50 (UMUC3): > 8000 nM
IC50 (SK-MEL3): > 8000 nM

N[C@@H](CSC(c1ccccc1)(c1ccccc1)c1ccccc1)C(=O)O [S-TRITYL-L-CYSTEINE]
IC50 (EVSA-T): 3400 nM
IC50 (MDA-MB-134-VI): > 5120 nM
IC50 (GDM-1): 2490 nM
IC50 (LB647-SCLC): > 5120 nM
IC50 (NCI-H2141): 4360 nM
IC50 (MHH-CALL-2): > 5120 nM
IC50 (NCCIT): 2390 nM
IC50 (BL-41): 1640 nM
IC50 (DMS-153): > 5120 nM
IC50 (YT): > 5120 nM
IC50 (NCI-H187): > 5120 nM
IC50 (NCI-H1417): > 5120 nM
IC50 (CHP-126): > 5120 nM

Cc1ccc(-c2c(C(=O)CCl)n(CCCO)c3ncnc(N)c23)cc1
IC50 (EVSA-T): 2400 nM
IC50 (MDA-MB-134-VI): > 4000 nM
IC50 (GDM-1): > 4000 nM
IC50 (LB647-SCLC): > 4000 nM
IC50 (NCI-H2141): > 4000 nM
IC50 (MHH-CALL-2): > 4000 nM
IC50 (NCCIT): > 4000 nM
IC50 (BL-41): > 4000 nM
IC50 (DMS-153): > 4000 nM
IC50 (YT): > 4000 nM
IC50 (NCI-H187): > 4000 nM
IC50 (NCI-H1417): > 4000 nM
IC50 (CHP-126): > 4000 nM

C#Cc1cccc(Nc2ncnc3cc(OCCOC)c(OCCOC)cc23)c1 [ERLOTINIB]
IC50 (EVSA-T): > 2000 nM
IC50 (GDM-1): > 2000 nM
IC50 (LB647-SCLC): > 2000 nM
IC50 (NCI-H2141): > 2000 nM
IC50 (MHH-CALL-2): > 2000 nM
IC50 (NCCIT): > 2000 nM
IC50 (BL-41): > 2000 nM
IC50 (DMS-153): > 2000 nM
IC50 (YT): > 2000 nM
IC50 (NCI-H187): > 2000 nM
IC50 (NCI-H1417): > 2000 nM
IC50 (CHP-126): > 2000 nM
